According to patent US7179446B2, “Simultaneous imaging of cardiac perfusion and a vitronectin receptor targeted imaging agent” (Bristol-Myers Squibb Pharma Company, priority 2000, dated 2007):

System: areas of endothelial damage, vulnerable plaque or angiogenesis in the heart
Assay: Simultaneous imaging of In-111 labeled vitronectin antagonist compound and Tc99m cardiac perfusion agent (Example 67)
Format: in vivo
Details: human, 10–40 mCi, approximately 0.5 to 6 hours following injection
Protocol: The compound of Examples 54, 55 or 56 is administered to a human at a level of ˜1–10 mCi of ^111In before, together with, or after the adminstration of a ^99mTc cardiac perfusion imaging agent (e.g. 10–40 mCi of ^99mTc-Sestamibi). […] The simultaneous imaging of the In-111 labeled vitronectin antagonist compound and the Tc99m cardiac perfusion agent is carried out by a method such as that reported by White (White, S A, Mueller, D H, Smith H E, et al. J Nucl Med Tech 1984, 12: 124–125) or Hillel (Hillel P G, Tindale W B, Taylor C J, et al. Nucl Med Conmun 1998, 19, 761–769).

[C-]#[N+]CC(C)(C)OC.[C-]#[N+]CC(C)(C)OC.[C-]#[N+]CC(C)(C)OC.[C-]#[N+]CC(C)(C)OC.[C-]#[N+]CC(C)(C)OC.[C-]#[N+]CC(C)(C)OC.[Tc] [^99mTc-Sestamibi, hexakis methoxyisobutyl isonitrile Technetium(I)]
distribution of the ^99mTc perfusion agent: distributed in the myocardium in relation to regional myocardial blood flow
